The values below come from patent US7482027B2, “Composition for the prevention or treatment of diseases associated with angiogenesis” (AngioLab, Inc., priority 2005, dated 2009).

The test system of this assay is HUVEC tube formation. Put plainly: HUVEC tube formation inhibition assay. The format is cell-based, Human. Further details: key to Tube formation inhibition: −: no inhibition of tube formation; +/−: rare inhibition of tube formation; +: light inhibition of tube formation and slight tube cleavage; ++: significant inhibition of tube formation and heavy tube cleavage; +++: no tube formation. The following applies: 50 μg/ml; for Tube formation inhibition: TABLE 2, HUVEC on Matrigel, 18 hours; for Inhibition of HUVEC tube formation (in words): text summary of TABLES 1 and 2. How it is done: Human umbilical vein endothelial cells (HUVECs) were isolated from freshly obtained cords after cesarean section according to Grants' method (Grants D S et al., Cell, 58, pp 923-943, 1989). The isolated HUVECs were grown in culture media comprising M-199 (Gibco BRL, 31100-035), 10% FBS, 50 μg/ml ECGS (Endothelial cell growth supplement, Sigma E2795), and 50 μg/ml heparin (Sigma H3149).
HUVECs isolated in REFERENCE EXAMPLE 1 were cultured within passage 5, and then were divided into 20,000 to 50,000 cells per well of 48 well plate coated with, Matrigel (BD Biosciences, Bedford, Mass.). Crude extracts, non-polar solvent extracts, or fractions of C. officinale of EXAMPLES 1 to 4 were added to the above HUVEC culture well at the concentration of 50 μg/ml, respectively, and DMSO was added as a control. They were grown with culture media of the above REFERENCE EXAMPLE 1.
After HUVECs were further incubated at 37° C. for 18 hours, tube formation was observed using microscope. The results were summarized in TABLES 1 and 2 (−: no inhibition of tube formation, +/− rare inhibition of tube formation, +: light inhibition of tube formation and slight tube cleavage, ++: significant inhibition of tube formation and heavy tube cleavage, +++: no tube formation).

In the case of `C=CC(O)C#CC#CC(O)C=C` (single isomer, unassigned) [AS44-C-2-D-b-IV, 1,9-decadiene-4,6-diyne-3,8-diol], the Tube formation inhibition result was “+++” and the “Inhibition of HUVEC tube formation (in words)” value is “strongly inhibited HUVEC tube formation”.
Taken in the same sequence, the figures for `CCCCC1OC(=O)c2c(O)cccc21` (single isomer, unassigned) [AS44-C-2-C-b-III, 3-butyl-7-hydroxyphthalide] were “+++” and “strongly inhibited HUVEC tube formation”.
